Source: patent US5650430A, “Radicicol derivatives, their preparation and their anti-tumor activity” (Sankyo Company, Limited, priority 1990, dated 1997)
Read-outs that look alike come from different tables or passages of the source.

Columns and labels:
mouse fibrosarcoma M5076 = test: anti-tumor effect in mice inoculated subcutaneously with M5076 fibrosarcoma; format: in vivo, mouse (female BDF1); settings: M5076 s.c. in mice
Description: The test animals used were female mice, 8 weeks old, of the BDF1 strain, weighing 20-25 g. The mice were purchased from Charles River Japan Inc., Kanagawa, Japan. The mice were divided into experimental groups, each group containing 6 mice, and all mice within each group were treated identically. Each mouse was inoculated subcutaneouly with 1×10^6viable cells (the number of cells was measured by a dye exclusion method under microscopy) of the mouse fibrosarcoma M5076.
The test compounds (80 mg) listed in the following Table, except radicicol, were dissolved in 0.2 ml of N,N-dimethylacetamide (DMA) and to the solution was added 0.2 ml of 40° C.-warmed HCO60 (polyoxyethylene hydrogenated caster oil 60). Immediately thereafter 3.6 ml of 40° C.-warmed physiological saline was added to form a colloidal solution or a suspension. The final concentration of DMA and HCO60 was 5% v/v, each. Radicicol was dissolved in […] of DMA and the solution was dispersed slowly into 3.75 ml of 10% Emulphor(trade mark)-physiological saline stirred well with a stirring rod. The final concentration of DMA was 6.25%. The solution was administered intravenously (in the case of a suspension it was administered intraperitoneally) on the first, fifth and ninth days following inoculation of the fibrosarcoma cells. The period for which the mice survived and the % inhibition of tumor growth were determined. A control group was treated identically, except that no active compound was administered.
The anti-tumor effect is shown in the following Table as the increase in life span [ILS (%)] and the growth inhibition [GI (%)], calculated from the following equations [R. I. Geran et al., Cancer Chemother. Rept., 3 (1972)]:
Dt=median survival time (days) of mice in the treated group; and
Dc=median survival time (days) of mice in the control group.
In this experiment, Dc was 40-47 days.
TDt=average value of tumor sizes on the fourteenth day in the treated group; and
TDc=average value of tumor sizes on the fourteenth day in the control group tumor size=(tumor length+tumor width )/2.

[1] = test system: tumor cells of the mouse mastocytoma P-815; settings: cited from earlier work
various types of tumor = test: anti-tumor activity against various types of tumor in vivo
Description: It is believed that the relative inactivity in vivo compared to the good activity in vitro may be a result of an instability of the compound to a component of the mammalian metabolism.

[2] = in words; cited from earlier work
fungi (anti-fungal) = settings: in words; cited from earlier work
[3] = Mus musculus, 336 h, 200 mg/kg iv on days 1, 5 and 9, tumor size on day 14, read-out: growth Inhibition (%)
[4] = Mus musculus, 200 mg/kg iv on days 1, 5 and 9, median survival vs control (Dc 40-47 days), read-out: ILS (%) (increase in life span)

Row | SMILES | inhibition in vivo at 200 mg/kg (mouse fibrosarcoma M5076; [3]) [%] | ILS at 200 mg/kg (mouse fibrosarcoma M5076; [4]) [%] | other results
1 | CCCCCCCC/C=C/CCCCCCCC(=O)Oc1cc(OC(=O)CCCCCCC/C=C/CCCCCCCC)c2c(c1Cl)CC(=O)/C=C/C=C\[C@H]1O[C@@H]1C[C@@H](C)OC2=O [72(trans), 14,16-dielaidoylradicicol] | 86 | 9 | 
2 | CCCCCCCCCCCCCCC(=O)Oc1cc(OC(=O)CCCCCCCCCCCCCC)c2c(c1Cl)CC(=O)/C=C/C=C\[C@H]1O[C@@H]1C[C@@H](C)OC2=O [Compound 23, 14,16-dipentadecanoylradicicol] | 95 | 35 | 
3 | CCCCCCCCCCCCCCCCCC(=O)Oc1cc(OC(=O)CCCCCCCCCCCCCCCCC)c2c(c1Cl)CC(=O)/C=C/C=C\[C@H]1O[C@@H]1C[C@@H](C)OC2=O [Compound 31, 14,16-distearoylradicicol] |  |  | inhibition in vivo at 200 mg/kg (mouse fibrosarcoma M5076; Mus musculus, 336 h, 200 mg/kg ip on days 1, 5 and 9, tumor size on day 14, read-out: growth Inhibition (%)): 66%; ILS at 200 mg/kg (mouse fibrosarcoma M5076; Mus musculus, 200 mg/kg ip on days 1, 5 and 9, median survival vs control (Dc 40-47 days), read-out: ILS (%) (increase in life span)): -4%
4 | C[C@@H]1C[C@H]2O[C@@H]2/C=C\C=C\C(=O)Cc2c(Cl)c(O)cc(O)c2C(=O)O1 [radicicol] |  |  | inhibitory effect in vitro on the growth of tumor cells [1]: strong inhibitory effect; inhibition in vivo at 150 mg/kg (mouse fibrosarcoma M5076; Mus musculus, 336 h, 150 mg/kg iv on days 1, 5 and 9, tumor size on day 14, read-out: growth Inhibition (%)): 5%; ILS at 150 mg/kg (mouse fibrosarcoma M5076; Mus musculus, 150 mg/kg iv on days 1, 5 and 9, median survival vs control (Dc 40-47 days), read-out: ILS (%) (increase in life span)): -29%; anti-tumor activity in vivo (various types of tumor): little anti-tumor activity; effect on the central nervous system [2]: without having any effect on the central nervous system; tranquilizing activity [2]: relatively strong tranquilizing activity; antibiotic activity (nature of) (fungi (anti-fungal)): strictly anti-fungal
5 | CCCCCCCC/C=C\CCCCCCCC(=O)Oc1cc(OC(=O)CCCCCCC/C=C\CCCCCCCC)c2c(c1Cl)CC(=O)/C=C/C=C\[C@H]1O[C@@H]1C[C@@H](C)OC2=O [72(cis), 14,16-dioleoylradicicol] | 80 | 4 | 
6 | CC/C=C\C/C=C\C/C=C\CCCCCCCC(=O)Oc1cc(OC(=O)CCCCCCC/C=C\C/C=C\C/C=C\CC)c2c(c1Cl)CC(=O)/C=C/C=C\[C@H]1O[C@@H]1C[C@@H](C)OC2=O [Compound 76, 14,16-dilinolenoylradicicol] |  |  | ILS (%) (increase in life span) (mouse fibrosarcoma M5076; 200 mg/kg iv on days 1, 5 and 9, median survival vs control (Dc 40-47 days)): 11%; growth Inhibition (%) (mouse fibrosarcoma M5076; 200 mg/kg iv on days 1, 5 and 9, tumor size on day 14): 74%
7 | CCCCCCCCCCCCC(=O)Oc1cc(OC(=O)CCCCCCCCCCCC)c2c(c1Cl)CC(=O)/C=C/C=C\[C@H]1O[C@@H]1C[C@@H](C)OC2=O [Compound 19, 14,16-ditridecanoylradicicol] | 89 | 9 | 
8 | CCCCCC/C=C\CCCCCCCC(=O)Oc1cc(OC(=O)CCCCCCC/C=C\CCCCCC)c2c(c1Cl)CC(=O)/C=C/C=C\[C@H]1O[C@@H]1C[C@@H](C)OC2=O [Compound 70, 14,16-dipalmitoleoylradicicol] | 65 | 31 | 
9 | CCCCCCCCCCCCCC(=O)Oc1cc(OC(=O)CCCCCCCCCCCCC)c2c(c1Cl)CC(=O)/C=C/C=C\[C@H]1O[C@@H]1C[C@@H](C)OC2=O [Compound 21, 14,16-dimyristoylradicicol] | 91 | 35 | 
10 | CCCCCCCCCCCCCCCCC(=O)Oc1cc(OC(=O)CCCCCCCCCCCCCCCC)c2c(c1Cl)CC(=O)/C=C/C=C\[C@H]1O[C@@H]1C[C@@H](C)OC2=O [Compound 28, 14,16-diheptadecanoylradicicol] | 95 | 27 | 
11 | CCCCCCCCCCCC(=O)Oc1cc(OC(=O)CCCCCCCCCCC)c2c(c1Cl)CC(=O)/C=C/C=C\[C@H]1O[C@@H]1C[C@@H](C)OC2=O [Compound 17, 14,16-dilauroylradicicol] | 89 | 24 | 
12 | CCCCCCCCCCCCCCCC(=O)Oc1cc(OC(=O)CCCCCCCCCCCCCCC)c2c(c1Cl)CC(=O)/C=C/C=C\[C@H]1O[C@@H]1C[C@@H](C)OC2=O [Compound 25, 14,16-dipalmitoylradicicol] | 100 | 43 | 
